# Assays:
# pigweed [1] = assay: Test A postemergence; assay type: in vivo, Amaranthus retroflexus
# From the text: (§1) Seeds of plant species selected from barnyardgrass (Echinochloa crus-galli), kochia (Kochia scoparia), common ragweed (Ambrosia elation), Italian ryegrass (Lolium multiflorum), crabgrass, large (large crabgrass, Digitaria sanguinalis), foxtail, giant (giant foxtail, Setaria faberii), morningglory (Ipomoea spp.), pigweed (redroot pigweed, Amaranthus retroflexus), velvetleaf (Abutilon theophrasti), wheat (Triticum aestivum), and corn (Zea mays) were planted into a blend of loam soil and sand and treated preemergence with a directed soil spray using test chemicals formulated in a non-phytotoxic solvent mixture which included a surfactant.
# (§2) At the same time, plants selected from these crop and weed species and also blackgrass (Alopecurus myosuroides), and galium (catchweed bedstraw, Galium aparine) were planted in pots containing the same blend of loam soil and sand and treated with postemergence applications of test chemicals formulated in the same manner. Plants ranged in height from 2 to 10 cm and were in the one- to two-leaf stage for the postemergence treatment. Treated plants and untreated controls were maintained in a greenhouse for approximately 10 days, after which time all treated plants were compared to untreated controls and visually evaluated for injury. Plant response ratings, summarized in Table A, are based on a 0 to 100 scale where 0 is no effect and 100 is complete control. A dash (-) response means no test result.
# corn [2] = assay: Test A preemergence; assay type: in vivo, Zea mays; details: 0 to 100 scale
# Summary of the method: (§3)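 Visual injury ratings, 0 = no effect to 100 = complete control, taken about 10 days after treatment against untreated controls. Test chemicals, in a non-phytotoxic surfactant-containing solvent, were sprayed onto soil preemergence or onto one- to two-leaf plants (2–10 cm) postemergence, in loam–sand soil under greenhouse conditions.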
# barnyardgrass [3] = assay: Test A preemergence; assay type: in vivo, Echinochloa crus-galli; details: 0 to 100 scale
# Summary of the method: as §3
# morningglory [4] = assay: Test A postemergence; assay type: in vivo, Ipomoea spp.
# Summary of the method: as §3
# foxtail, giant [5] = assay: Test A postemergence; assay type: in vivo, Setaria faberii
# From the text: as §1, §2
# morningglory [6] = assay: Test A preemergence; assay type: in vivo, Ipomoea spp.; details: 0 to 100 scale
# From the text: as §1, §2
# pigweed [7] = assay: Test A preemergence; assay type: in vivo, Amaranthus retroflexus; details: 0 to 100 scale
# From the text: as §1, §2
# velvetleaf [8] = assay: Test A postemergence; assay type: in vivo, Abutilon theophrasti
# From the text: as §1, §2
# velvetleaf [9] = assay: Test A preemergence; assay type: in vivo, Abutilon theophrasti; details: 0 to 100 scale
# From the text: as §1, §2
# foxtail, giant [10] = assay: Test A preemergence; assay type: in vivo, Setaria faberii; details: 0 to 100 scale
# From the text: as §1, §2
# wheat [11] = assay: Test A postemergence; assay type: in vivo, Triticum aestivum
# From the text: as §1, §2
# corn [12] = assay: Test A postemergence; assay type: in vivo, Zea mays
# Summary of the method: as §3
# crabgrass, large [13] = assay: Test A preemergence; assay type: in vivo, Digitaria sanguinalis; details: 0 to 100 scale
# Summary of the method: as §3
# crabgrass, large [14] = assay: Test A postemergence; assay type: in vivo, Digitaria sanguinalis
# From the text: as §1, §2
# wheat [15] = assay: Test A preemergence; assay type: in vivo, Triticum aestivum
# From the text: as §1, §2
# barnyardgrass [16] = assay: Test A postemergence; assay type: in vivo, Echinochloa crus-galli; details: Postemergence
# Summary of the method: as §3
# [17] = Postemergence, 500 g ai/ha, visual rating after approx. 10 days, 0 to 100 scale (0 no effect, 100 complete control)
# [18] = postemergence, 125 g ai/ha, about 10 days, visual rating on 0 to 100 scale (0 no effect, 100 complete control)
# [19] = Preemergence, 500 g ai/ha, 0 no effect, 100 complete control
# [20] = preemergence, 125 g ai/ha, visual injury, approx. 10 days
# [21] = preemergence, 125 g ai/ha, visual injury, 0 to 100 scale, approx. 10 days
# [22] = 125 g ai/ha, 0 to 100 scale, 0 no effect, 100 complete control
# [23] = 500 g ai/ha, visual rating after approx. 10 days, 0 to 100 scale (0 no effect, 100 complete control)
# [24] = Postemergence, 1000 g ai/ha, visual rating after approx. 10 days, 0 to 100 scale (0 no effect, 100 complete control)
# [25] = Preemergence, 1000 g ai/ha, 0 no effect, 100 complete control
# [26] = Preemergence, 1000 g ai/ha, 0 to 100 scale, 0 no effect, 100 complete control
# [27] = 1000 g ai/ha, visual rating after approx. 10 days, 0 to 100 scale (0 no effect, 100 complete control)
smiles,measurement,setting,value
Cc1cc(C(=O)NC2CC2)nn1Cc1cc(F)cc(C(F)(F)F)c1 [Compound 14],Pigweed plant response rating,pigweed [1]; [17],70
same,Pigweed plant response rating,pigweed [1]; [18],50
same,Corn plant response rating,corn [2]; [19],0
same,Corn plant response rating,corn [2]; [20],0
same,Barnyardgrass plant response rating,barnyardgrass [3]; [19],10
same,Barnyardgrass plant response rating,barnyardgrass [3]; [20],0
same,Morningglory plant response rating,morningglory [4]; [17],80
same,Morningglory plant response rating,morningglory [4]; [18],50
same,"Foxtail, Giant plant response rating","foxtail, giant [5]; [17]",20
same,"Foxtail, Giant plant response rating","foxtail, giant [5]; [18]",0
same,Morningglory plant response rating,morningglory [6]; [19],20
same,Morningglory plant response rating,morningglory [6]; [20],0
same,Pigweed plant response rating,pigweed [7]; [19],100
same,Pigweed plant response rating,pigweed [7]; [20],100
same,Velvetleaf plant response rating,velvetleaf [8]; [17],30
same,Velvetleaf plant response rating,velvetleaf [8]; [18],20
same,Velvetleaf plant response rating,velvetleaf [9]; [19],0
same,Velvetleaf plant response rating,velvetleaf [9]; [20],0
same,"Foxtail, Giant plant response rating","foxtail, giant [10]; [19]",90
same,"Foxtail, Giant plant response rating","foxtail, giant [10]; [20]",10
same,Wheat plant response rating,wheat [11]; [17],0
same,Wheat plant response rating,wheat [11]; [18],0
same,Corn plant response rating,corn [12]; [17],10
same,Corn plant response rating,corn [12]; [18],0
same,"Crabgrass, Large plant response rating","crabgrass, large [13]; [19]",90
same,"Crabgrass, Large plant response rating","crabgrass, large [13]; [20]",10
same,"Crabgrass, Large plant response rating","crabgrass, large [14]; [17]",40
same,"Crabgrass, Large plant response rating","crabgrass, large [14]; [18]",20
same,Wheat plant response rating,wheat [15]; [21],0
same,Barnyardgrass plant response rating,barnyardgrass [16]; [22],0
same,Barnyardgrass plant response rating,barnyardgrass [16]; [23],10
CCc1cc(C(=O)N(C)CC)nn1Cc1cccc(OC(F)(F)F)c1 [Compound 68],Pigweed plant response rating,pigweed [1]; [24],60
same,Corn plant response rating,corn [2]; [25],0
same,Barnyardgrass plant response rating,barnyardgrass [3]; [25],0
same,Morningglory plant response rating,morningglory [4]; [24],100
same,"Foxtail, Giant plant response rating","foxtail, giant [5]; [24]",20
same,Morningglory plant response rating,morningglory [6]; [25],0
same,Pigweed plant response rating,pigweed [7]; [25],70
same,Velvetleaf plant response rating,velvetleaf [8]; [24],40
same,Velvetleaf plant response rating,velvetleaf [9]; [25],0
same,"Foxtail, Giant plant response rating","foxtail, giant [10]; [25]",60
same,Wheat plant response rating,wheat [11]; [24],20
same,Corn plant response rating,corn [12]; [24],30
same,"Crabgrass, Large plant response rating","crabgrass, large [13]; [25]",40
same,"Crabgrass, Large plant response rating","crabgrass, large [14]; [24]",30
same,Wheat plant response rating,wheat [15]; [26],0
same,Wheat plant response rating,"wheat [15]; preemergence, 500 g ai/ha, visual injury after approx. 10 days, 0 to 100 scale (0 no effect, 100 complete control)",0
same,Barnyardgrass plant response rating,barnyardgrass [16]; [27],30
CCc1cc(C(=O)NCC(C)(C)C)nn1Cc1cccc(C(F)(F)F)c1 [Compound 46],Pigweed plant response rating,pigweed [1]; [24],40
same,Corn plant response rating,corn [2]; [25],0
same,Barnyardgrass plant response rating,barnyardgrass [3]; [25],10
same,Morningglory plant response rating,morningglory [4]; [24],70
same,"Foxtail, Giant plant response rating","foxtail, giant [5]; [24]",60
same,Morningglory plant response rating,morningglory [6]; [25],20
same,Pigweed plant response rating,pigweed [7]; [25],0
same,Velvetleaf plant response rating,velvetleaf [8]; [24],70
same,Velvetleaf plant response rating,velvetleaf [9]; [25],0
same,"Foxtail, Giant plant response rating","foxtail, giant [10]; [25]",20
same,Wheat plant response rating,wheat [11]; [24],20
same,Corn plant response rating,corn [12]; [24],20
same,"Crabgrass, Large plant response rating","crabgrass, large [13]; [25]",10
same,"Crabgrass, Large plant response rating","crabgrass, large [14]; [24]",30
same,Wheat plant response rating,wheat [15]; [26],0
same,Barnyardgrass plant response rating,barnyardgrass [16]; [27],10
Cc1cc(C(=O)NC2CC2)nn1Cc1ccc(F)c(C(F)(F)F)c1 [Compound 11],Pigweed plant response rating,pigweed [1]; [17],100
same,Pigweed plant response rating,pigweed [1]; [18],60
same,Corn plant response rating,corn [2]; [19],0
same,Corn plant response rating,corn [2]; [20],0
same,Barnyardgrass plant response rating,barnyardgrass [3]; [19],50
same,Barnyardgrass plant response rating,barnyardgrass [3]; [20],10
same,Morningglory plant response rating,morningglory [4]; [17],80
same,Morningglory plant response rating,morningglory [4]; [18],70
same,"Foxtail, Giant plant response rating","foxtail, giant [5]; [17]",30
same,"Foxtail, Giant plant response rating","foxtail, giant [5]; [18]",10
same,Morningglory plant response rating,morningglory [6]; [19],30
same,Morningglory plant response rating,morningglory [6]; [20],10
same,Pigweed plant response rating,pigweed [7]; [19],100
same,Pigweed plant response rating,pigweed [7]; [20],60
same,Velvetleaf plant response rating,velvetleaf [8]; [17],40
same,Velvetleaf plant response rating,velvetleaf [8]; [18],30
same,Velvetleaf plant response rating,velvetleaf [9]; [19],20
same,Velvetleaf plant response rating,velvetleaf [9]; [20],0
same,"Foxtail, Giant plant response rating","foxtail, giant [10]; [19]",60
same,"Foxtail, Giant plant response rating","foxtail, giant [10]; [20]",20
same,Wheat plant response rating,wheat [11]; [17],0
same,Wheat plant response rating,wheat [11]; [18],0
same,Corn plant response rating,corn [12]; [17],20
same,Corn plant response rating,corn [12]; [18],0
same,"Crabgrass, Large plant response rating","crabgrass, large [13]; [19]",90
same,"Crabgrass, Large plant response rating","crabgrass, large [13]; [20]",60
same,"Crabgrass, Large plant response rating","crabgrass, large [14]; [17]",40
same,"Crabgrass, Large plant response rating","crabgrass, large [14]; [18]",20
same,Wheat plant response rating,wheat [15]; [21],0
same,Barnyardgrass plant response rating,barnyardgrass [16]; [22],0
same,Barnyardgrass plant response rating,barnyardgrass [16]; [23],10
